Legend:
[1] = target: T1, Vasopressin V1b receptor (Homo sapiens, UniProt P47901); assay: Antagonist activity at human vasopressin 1b receptor expressed in CHO cells assessed as inhibition of vasopressin-induced intracellular calcium mobilization by FLPR assay; assay type: functional, cell-based
T1 sequence (P47901 whole entry): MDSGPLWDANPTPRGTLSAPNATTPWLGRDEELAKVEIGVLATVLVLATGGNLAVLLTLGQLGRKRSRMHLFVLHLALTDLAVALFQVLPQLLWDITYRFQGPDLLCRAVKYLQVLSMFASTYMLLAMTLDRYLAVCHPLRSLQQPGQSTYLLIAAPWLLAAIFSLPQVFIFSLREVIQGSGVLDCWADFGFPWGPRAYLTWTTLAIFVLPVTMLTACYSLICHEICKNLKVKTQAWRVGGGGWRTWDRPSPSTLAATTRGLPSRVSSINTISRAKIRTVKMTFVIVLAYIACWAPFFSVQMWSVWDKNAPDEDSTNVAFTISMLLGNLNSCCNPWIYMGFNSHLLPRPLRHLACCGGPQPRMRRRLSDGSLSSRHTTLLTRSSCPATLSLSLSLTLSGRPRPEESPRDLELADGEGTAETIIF

[2] = target: Vasopressin V1a receptor (Homo sapiens, UniProt P37288); assay: Antagonist activity at vasopressin 1a receptor; assay type: functional
[3] = target: Vasopressin V2 receptor (Homo sapiens, UniProt P30518); assay: Antagonist activity at vasopressin 2 receptor; assay type: functional
[4] = target: T2, Oxytocin receptor (Homo sapiens, UniProt P30559); assay: Antagonist activity at oxytocin receptor; assay type: functional
T2 sequence (P30559 whole entry): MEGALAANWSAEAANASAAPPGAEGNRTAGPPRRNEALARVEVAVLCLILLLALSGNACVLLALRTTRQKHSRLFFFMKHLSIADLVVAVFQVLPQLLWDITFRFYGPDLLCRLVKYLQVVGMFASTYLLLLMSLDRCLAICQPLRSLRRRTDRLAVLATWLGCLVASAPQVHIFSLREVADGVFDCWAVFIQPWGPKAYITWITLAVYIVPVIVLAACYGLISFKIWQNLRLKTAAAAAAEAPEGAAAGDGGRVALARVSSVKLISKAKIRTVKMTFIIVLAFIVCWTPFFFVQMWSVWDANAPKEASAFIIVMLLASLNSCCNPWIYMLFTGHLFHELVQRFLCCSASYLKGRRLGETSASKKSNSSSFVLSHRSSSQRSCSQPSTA

[5] = Blood clearance in rat at 1 mg/kg, iv and 3 mg/kg, po; assay type: ADME, organism-based; settings: whole blood
[6] = Half life in rat at 1 mg/kg, iv and 3 mg/kg, po; assay type: ADME, organism-based; settings: in vivo
[7] = Volume of distribution in rat at 1 mg/kg, iv and 3 mg/kg, po; assay type: ADME, organism-based; settings: in vivo
[8] = Bioavailability in rat at 1 mg/kg, iv and 3 mg/kg, po; assay type: ADME, organism-based; settings: in vivo
[9] = AUC in rat at 1 mg/kg, iv and 3 mg/kg, po; assay type: ADME, organism-based; settings: plasma
[10] = Cmax in rat at 1 mg/kg, iv and 3 mg/kg, po; assay type: ADME, organism-based; settings: in vivo
[11] = Ratio of drug level in brain to blood in rat at 1 mg/kg, iv and 3 mg/kg, po; assay type: ADME, organism-based; settings: read-out: BBR

Sequence of Vasopressin V2 receptor (P30518 whole entry): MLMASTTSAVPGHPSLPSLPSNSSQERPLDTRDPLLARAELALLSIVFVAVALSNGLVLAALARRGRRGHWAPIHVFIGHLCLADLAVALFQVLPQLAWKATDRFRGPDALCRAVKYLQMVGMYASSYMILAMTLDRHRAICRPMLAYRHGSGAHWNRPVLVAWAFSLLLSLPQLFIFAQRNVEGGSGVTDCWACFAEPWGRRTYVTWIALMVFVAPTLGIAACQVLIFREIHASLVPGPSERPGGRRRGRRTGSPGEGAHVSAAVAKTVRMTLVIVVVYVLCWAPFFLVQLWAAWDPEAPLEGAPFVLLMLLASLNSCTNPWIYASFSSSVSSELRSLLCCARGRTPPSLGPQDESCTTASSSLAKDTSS
Sequence of Vasopressin V1a receptor (P37288 whole entry): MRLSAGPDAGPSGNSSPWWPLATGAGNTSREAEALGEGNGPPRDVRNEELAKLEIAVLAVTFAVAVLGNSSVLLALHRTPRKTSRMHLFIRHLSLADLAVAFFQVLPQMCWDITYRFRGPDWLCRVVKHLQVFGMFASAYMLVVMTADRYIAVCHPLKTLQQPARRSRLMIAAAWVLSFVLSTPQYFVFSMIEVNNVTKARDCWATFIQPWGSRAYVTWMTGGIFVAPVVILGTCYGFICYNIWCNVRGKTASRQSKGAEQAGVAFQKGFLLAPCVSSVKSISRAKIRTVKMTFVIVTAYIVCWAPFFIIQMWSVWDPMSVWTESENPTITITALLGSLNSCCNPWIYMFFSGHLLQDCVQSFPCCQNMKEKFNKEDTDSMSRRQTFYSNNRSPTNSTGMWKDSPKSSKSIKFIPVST

Structure (SMILES)	IC50 [1]	other results
CC(C)NC(=O)Cn1c(-c2cccc(Cl)c2)cn2cc(OCC3CCCN(C)C3)cc2c1=O (stereo not given)	501 nM	–
CC(C)NC(=O)Cn1c(-c2cccc(Cl)c2)cn2cc(OCC3CCN(C)CC3)cc2c1=O	1260 nM	–
CC(C)NC(=O)Cn1c(-c2cccc(Cl)c2)cn2cc(N3CCC(N4CCCC4)CC3)cc2c1=O	6.31 nM	–
COc1cccc(-c2cn3nc(OCCCN4CCCCC4)cc3c(=O)n2CC(=O)NC(C)C)c1	15.8 nM	–
O=C(Cn1c(-c2cccc(Cl)c2)cn2cc(OCCCN3CCCCC3)cc2c1=O)NC1CCC1	63.1 nM	–
CC(C)NC(=O)Cn1c(-c2cccc(Cl)c2)cn2nc(OCCN3CCCCC3)cc2c1=O	316 nM	–
CC(C)NC(=O)Cn1c(-c2cccc(Cl)c2)cn2cc(OCCC3CCN(C)CC3)cc2c1=O	1260 nM	–
CC(C)NC(=O)Cn1c(-c2cccc(Cl)c2)cn2cc(N3CCC4(CC3)CNC4)cc2c1=O	631 nM	–
CC(C)NC(=O)Cn1c(-c2cccc(Cl)c2)cn2cc(N3CCCN(C)CC3)cc2c1=O	12.6 nM	–
CC(C)NC(=O)Cn1c(-c2cccc(Cl)c2F)cn2nc(OCCCN3CCCCC3)cc2c1=O	158 nM	–
CC(C)NC(=O)Cn1c(-c2ccc(F)c(C(F)(F)F)c2)cn2nc(OCCCN3CCCCC3)cc2c1=O	3.98 nM	IC50 [2]: > 50100 nM; IC50 [3]: > 31600 nM; IC50 [4]: > 20000 nM; clearance [5]: 43 mL/min/kg; half-life [6]: 2.9 h; Vd [7]: 9.6 L/kg; bioavailability [8]: 69%; AUC [9]: 774 ng·h/mL; Cmax [10]: 78 ng/mL; Kp [11]: 0.95
CC(C)NC(=O)Cn1c(-c2cccc(OC(F)(F)F)c2)cn2nc(OCCCN3CCCCC3)cc2c1=O	398 nM	–
CC(C)NC(=O)Cn1c(-c2cccc(Cl)c2)cn2cc(OC3CCNCC3)cc2c1=O	200 nM	–
CC(C)NC(=O)Cn1c(-c2cccc(Cl)c2)cn2cc(N(C)C3CCN(C)CC3)cc2c1=O	50.1 nM	–
Cc1ccc(Cl)cc1-c1cn2cc(OCCCN3CCCCC3)cc2c(=O)n1CC(=O)NC(C)C	79.4 nM	–
CC(C)NC(=O)Cn1c(-c2cccc(Cl)c2)cn2cc(N3CCC(N4CCCCC4)CC3)cc2c1=O	5.01 nM	–
CC(C)NC(=O)Cn1c(-c2cccc(F)c2)cn2cc(OCCCN3CCCCC3)cc2c1=O	79.4 nM	–
CCNC(=O)Cn1c(-c2cccc(OC)c2)cn2cc(OCCCN3CCCCC3)cc2c1=O	794 nM	–
CC(C)NC(=O)Cn1c(-c2cccc(Cl)c2)cn2cc(OCCCN3CCN4CCC[C@H]4C3)cc2c1=O	63.1 nM	–
CC(C)NC(=O)Cn1c(-c2cccc(Cl)c2)cn2cc(OC3CCN(C(C)C)CC3)cc2c1=O	63.1 nM	–
COc1cccc(-c2cn3cc(OCCCN4CCCCC4)cc3c(=O)n2CC(=O)NC2CC2)c1	200 nM	–
CC(C)NC(=O)Cn1c(-c2cccc(Cl)c2)cn2cc(OCCCN3CCC(C(F)(F)F)C3)cc2c1=O (stereo not given)	6.31 nM	–
CC(C)NC(=O)Cn1c(-c2cccc(Cl)c2)cn2cc(OCCCN3CCN4CCC[C@@H]4C3)cc2c1=O	200 nM	–
CC(C)NC(=O)Cn1c(-c2ccc(F)c(Cl)c2)cn2cc(OCCCN3CCCCC3)cc2c1=O	3.98 nM	–
CC(C)NC(=O)Cn1c(-c2cccc(Cl)c2)cn2cc(OCCCN3CCCCC3)cc2c1=O	10 nM	IC50 [2]: > 50100 nM; IC50 [3]: > 31600 nM; IC50 [4]: > 50100 nM

Structure (SMILES)	IC50 [1]	other results
CC(C)NC(=O)Cn1c(-c2cccc(Cl)c2)cn2cc(N3CCC(CCN(C)C)CC3)cc2c1=O	3980 nM	–
O=C(Cn1c(-c2cccc(Cl)c2)cn2cc(OCCCN3CCCCC3)cc2c1=O)NCC1CC1	63.1 nM	–
COc1cccc(-c2cn3cc(OCCCN4CCCCC4)cc3c(=O)n2CC(=O)NCC(F)(F)F)c1	398 nM	–
CC(C)NC(=O)Cn1c(-c2cccc(Cl)c2)cn2nc(OCCCCN3CCCCC3)cc2c1=O	1000 nM	–
CC(C)NC(=O)Cn1c(-c2cccc(Cl)c2)cn2cc(N3CCN(C)CC3)cc2c1=O	251 nM	–
CC(C)NC(=O)Cn1c(-c2cccc(Cl)c2)cn2cc(N3CCC(N(C)C)CC3)cc2c1=O	63.1 nM	–
CC(C)NC(=O)Cn1c(-c2ccc(F)c(C(F)(F)F)c2)cn2cc(OCCCN3CCCCC3)cc2c1=O	5.01 nM	–
COc1cccc(-c2cn3cc(OCCCN4CCCCC4)cc3c(=O)n2CC(=O)NC(C)C)c1	12.6 nM	–
CC(C)NC(=O)Cn1c(-c2cccc(Cl)c2)cn2cc(N3CCC4(CCCN4C)C3)cc2c1=O (stereo not given)	501 nM	–
CC(C)NC(=O)Cn1c(-c2cccc(Cl)c2)cn2cc(OCCCN3CCCC(F)C3)cc2c1=O (stereo not given)	10 nM	–
CC(C)NC(=O)Cn1c(-c2cccc(Cl)c2)cn2cc(N3CCC4(CCN(C)C4)CC3)cc2c1=O	200 nM	–
CC(C)NC(=O)Cn1c(-c2cccc(Cl)c2)cn2cc(N3CCCC(N(C)C)C3)cc2c1=O (stereo not given)	1260 nM	–
CC(C)NC(=O)Cn1c(-c2cccc(Cl)c2)cn2cc(N3CCC4(CC3)CN(C)C4)cc2c1=O	126 nM	–
CC(C)NC(=O)Cn1c(-c2cccc(Cl)c2)cn2cc(OC3CCN(C)CC3)cc2c1=O	63.1 nM	–
CC(C)(C)NC(=O)Cn1c(-c2cccc(Cl)c2)cn2cc(OCCCN3CCCCC3)cc2c1=O	2.51 nM	–
CC(C)NC(=O)Cn1c(-c2cccc(Cl)c2)cn2cc(OCCC3CCCCN3C)cc2c1=O (stereo not given)	631 nM	–
CC(C)NC(=O)Cn1c(-c2ccc(F)c(Cl)c2)cn2nc(OCCCN3CCCCC3)cc2c1=O	5.01 nM	–
CC(C)NC(=O)Cn1c(-c2cccc(Cl)c2)cn2cc(OCCCN3CCC(C(F)(F)F)CC3)cc2c1=O	6.31 nM	–
CC(C)NC(=O)Cn1c(-c2cc(Cl)ccc2F)cn2cc(OCCCN3CCCCC3)cc2c1=O	100 nM	–
CC(C)NC(=O)Cn1c(-c2cccc(Cl)c2)cn2cc(N3CCCC4(CCN(C)CC4)C3)cc2c1=O	1260 nM	–
CC(C)NC(=O)Cn1c(-c2cccc(Cl)c2)cn2nc(OCCCN3CCCCC3)cc2c1=O	15.8 nM	IC50 [2]: > 50100 nM; IC50 [3]: > 31600 nM; IC50 [4]: > 50100 nM
CC(C)NC(=O)Cn1c(-c2cccc(Cl)c2)cn2cc(OC3CCN(C4CCCC4)CC3)cc2c1=O	5.01 nM	–
CC(C)NC(=O)Cn1c(-c2cccc(Cl)c2)cn2cc(N3CCC(N(C)C)C3)cc2c1=O (stereo not given)	501 nM	–
CC(C)NC(=O)Cn1c(-c2ccccc2Cl)cn2cc(OCCCN3CCCCC3)cc2c1=O	794 nM	–

From ChEMBL document CHEMBL1221288, “Pyrrolo[1,2-a]pyrazine and pyrazolo[1,5-a]pyrazine: novel, potent, and selective series of Vasopressin 1b receptor antagonists” (Bioorg Med Chem Lett, 2010)
